Experimental data from PMC8536644, “Enigmatic mechanism of the N-vinylpyrrolidone hepatocarcinogenicity in the rat” (Archives of Toxicology, 2021).
Several values for one entry are separate records, joined by “and”; a condition that tells them apart may be missing. Equal entries are not always repeated.

Legend:
[1] = system: polychromatic erythrocytes of rat bone marrow; conditions: in vivo; cited from earlier work
CYP2B = test: PROD assay, lung microsomes; format: in vivo, rat; conditions: 20 ppm
Experimental: The alkoxyresorufin dealkylase (AROD) assays were based on the method by Burke et al. ([1994]).
The frozen livers and lungs of the NVP-treated male Wistar rats were thawed and washed with isotonic (0.9%) NaCl solution. The tissues were ice-cooled homogenized (1 g tissue: 3 mL 0.25 M saccharose in 1 mM disodium EDTA, pH 7.4) and centrifuged (9000 g, 15 min, 4 °C). The supernatant fraction was centrifuged (100 000 g, 60 min, 4 °C). The resulting supernatant fraction was used for the palmitoyl-CoA-oxidase assay described further down. The pellet was taken up in 150 mM aqueous KCl solution, recentrifuged (100 000 g, 60 min, 4 °C) and the pellet taken up in 1 mL/g liver or 0.5 mL/g lung resuspension buffer (1 mM GSH, 1 mM disodium EDTA, 4 mM MgCl2, 0.1 M KH2PO4, pH 7.5 and 4% glycerol). […]
For determination of the enzyme activities in triplicates, 85 µL master mix (100 mM TrisHCl pH 7.5, 2 mM 5’AMP, 5 mM G-6-P, 10 U G-6-P-DH, 10 mM Dicumarol, 10 mM MgCl2, either 2 µM EROD or 10 µM PROD or 5 µM BROD) was added to 10 µL microsomal fraction (1 mg protein/mL). […] The activity was determined by measuring the increase of the fluorescence (excitation at 550 nm, emission at 585 nm) due to resorufin formation compared with resorufin standards, which had been prepared by dissolving tenfold concentrated solutions in DMSO, which were then diluted tenfold in 100 mM TrisHCl pH 7.5.

CYP4A = test: Lauric acid hydroxylase assay, 12-hydroxylation (PPARα marker); format: in vivo, rat
Experimental: ^14C-labelled lauric acid (55 mCi/mmol) dissolved in ethanol (0.1 mCi/mL; total volume 2.5 mL) was purchased from American Radiolabeled Chemicals. 10 µL of this solution were diluted with methanol to 2 mL. The purity was checked by radio-HPLC. For the enzyme activity determinations 1.21 mL of this solution were treated in the thermomixer at 40 °C and 300 rpm until the ethanol was completely evaporated. The residue was taken up in 550 µL DMSO and checked on the incubation days by radio-HPLC and by liquid scintillation counting (LSC). To this end the just-mentioned solution in DMSO (nominally 8.14 MBq/mL) was 100-fold diluted with methanol, 50 µL of the resultant solution used for the HPLC analysis, 100 µL for the LSC analysis (488,400 dpm/100 µL).
For the determination of the lauric acid hydroxylase activity the liver microsomal fractions (prepared as described in the preceding chapter “Aryl hydrocarbon receptor”) derived from the NVP-treated (and untreated control) male rats were adjusted with TrisHCl pH 7.5–20 mg protein/mL. Obtained samples were measured in duplicates. Controls were heat-denatured samples (15 min at 99 °C in the thermomixer at 450 rpm), zero-time samples (reaction stopped immediately after adding substrate) and buffer controls (TrisHCl pH 7.5, no microsomal protein). 155 µL master mix (100 mM TrisHCl pH 7.5, 10 mM MgCl2, 2 mM 5’AMP-Na2, 5 mM G-6-P, 10 U G-6-P-DH) and 30 µL sample were preincubated for 3 min at 37 °C. Subsequently 10 µL of a 2-mM NADPH solution and 5 µL ^14C-lauric acid (8.14 MBq/mL) were added (lauric acid final concentration in the incubation 100 µM). The reaction was run for 20 min at 37 °C in the thermomixer (450 rpm) and stopped by the addition of 200 µL ice-cold acetone. […]

rats = system: rats; design: method as in Klimisch et al. [1997b]; conditions: ref Klimisch et al. [1997b], cited from earlier work
mice = system: mice; design: method as in Klimisch et al. [1997b]; conditions: inhalation, ref Klimisch et al. [1997b]; cited from earlier work
Salmonella strains = conditions: three independent tests in four Salmonella strains; ref MAK [1994]; cited from earlier work
[2] = lauric acid 12-hydroxylation, liver microsomes, 20 ppm NVP, individual animals 19-24

CCOS(C)(=O)=O [EMS, ethyl methanesulfonate, reference compound]
Micronuclei in PCE, historical positive controls [1]: 6.1–21.9 ‰

C=CN1CCCC1=O [NVP, N-vinylpyrrolidone]
PROD activity in lung microsomes vs vehicle control (CYP2B): not significantly different
Increase of lauric acid 12-hydroxylation vs vehicle control (CYP4A; 20 ppm, not statistically significant): 1.3 fold
ω-hydroxylase (CYP4A-activity), enzyme activity individual (CYP4A; [2]): 20,495 peak surface/min/mg protein and 20,593 peak surface/min/mg protein and 10,543 peak surface/min/mg protein and 14,545 peak surface/min/mg protein and 15,406 peak surface/min/mg protein and 6779 peak surface/min/mg protein
ω-hydroxylase (CYP4A-activity), peak surface (CYP4A; [2]): 27,314 and 28,341 and 15,814 and 21,818 and 23,109 and 11,088
Change of total non-protein-bound sulfhydryls (rats; Sprague–Dawley rats, inhalation 3 months, 10 ppm): increase
Concentration at which erythrocytes, hematocrit and hemoglobin were reduced (rats; rats, inhalation): 15 ppm
Concentration with foci of altered hepatocytes (rats; rats, inhalation): 5 ppm
LOAEC, liver (increased gamma-glutamyl transpeptidase and glutathione) (rats; rats, inhalation): 5 ppm
LOAEC, nasal mucosa (inflammation, olfactory epithelium atrophy, basal cell hyperplasia) (rats; rats, inhalation): 5 ppm
Dose with necrosis of single centrilobular liver cells (rats; subchronic studies in rats and mice): 45 ppm
Concentration at which erythrocytes, hematocrit and hemoglobin were reduced (mice): 15 ppm
LOAEC, liver (increased gamma-glutamyl transpeptidase and glutathione) (mice): 10 ppm
LOAEC, nasal mucosa (inflammation, olfactory epithelium atrophy, basal cell hyperplasia) (mice): 5 ppm
Ames Salmonella back mutation test result (Salmonella strains): negative
